Measured values published in publication PMC10178562, “Synthesis and Characterisation of Fluorescent Novel Pt(II) Cyclometallated Complexes with Anticancer Activity” (International Journal of Molecular Sciences, 2023).

Assays:
A2780 Ovarian = assay: MTT cytotoxicity A2780; format: cell-based; conditions: read-out: GI50 Concentration That Inhibits Cell Growth by 50%, 72 h
Protocol: (§1) Cytotoxicity assay studies were performed at Calvary Mater Newcastle Hospital, Waratah, NSW, Australia. In vitro studies were performed according to described methods. Complexes were prepared in DMSO as stock treatment (30 mM) solutions and stored at −20 °C. All cell lines were cultured in a humidified atmosphere with 5% CO2 at 37 °C and maintained in Dulbecco’s modified eagle’s medium (DMEM; Trace Biosciences, Melbourne, Australia) supplemented with 10% foetal bovine serum, sodium bicarbonate (10 mM), penicillin (100 IU mL^−1), streptomycin (100 μg mL^−1), and L-glutamine (4 mM). The non-cancer MCF10A cell line was cultured in DMEM.F12 (1:1) cell culture media (Composition in SI). Cytotoxicity was determined by plating cells in duplicate in 100 μL medium at a density of 2500–4000 cells per well in 96-well plates. After 24 h, when cells were in logarithmic growth, media (100 μL) with or without the test agent were added to each well (day 0). After 72 h of exposure, growth inhibitory effects were evaluated by MTT (3-[4,5-dimethylthiazol-2-yl]-2,5-diphenyltetrazolium bromide) assay, and absorbance was read at 540 nm. […] These calculations were based on the difference between the optical density values on day 0 and those at the end of drug exposure.

H460 Lung = assay: MTT cytotoxicity H460; format: cell-based; conditions: read-out: GI50 Concentration That Inhibits Cell Growth by 50%, 72 h
Protocol: as §1

HT29 Colon = assay: MTT cytotoxicity HT29; format: cell-based; conditions: read-out: GI50 Concentration That Inhibits Cell Growth by 50%, 72 h
Protocol: as §1

A431 Skin = assay: MTT cytotoxicity A431; format: cell-based; conditions: read-out: GI50 Concentration That Inhibits Cell Growth by 50%, 72 h
Protocol: as §1

SJ-G2 Glioblastoma = assay: MTT cytotoxicity SJ-G2; format: cell-based; conditions: read-out: GI50 Concentration That Inhibits Cell Growth by 50%, 72 h
Protocol: as §1

MCF-7 Breast = assay: MTT cytotoxicity MCF-7; format: cell-based; conditions: for GI50: read-out: GI50 Concentration That Inhibits Cell Growth by 50%, MCF-7 Breast, 72 h, MTT
Protocol: as §1

Du145 Prostate = assay: MTT cytotoxicity Du145; format: cell-based; conditions: read-out: GI50 Concentration That Inhibits Cell Growth by 50%, 72 h
Protocol: as §1

U87 Glioblastoma = assay: MTT cytotoxicity U87; format: cell-based; conditions: read-out: GI50 Concentration That Inhibits Cell Growth by 50%, 72 h
Protocol: as §1

BE2-C Neuroblastoma = assay: MTT cytotoxicity BE2-C; format: cell-based; conditions: read-out: GI50 Concentration That Inhibits Cell Growth by 50%, 72 h
Protocol: as §1

MIA Pancreas = assay: MTT cytotoxicity MIA; format: cell-based; conditions: read-out: GI50 Concentration That Inhibits Cell Growth by 50%, 72 h
Protocol: as §1

MCF10A Breast (normal) = assay: MTT cytotoxicity MCF10A (non-cancer); format: cell-based; conditions: read-out: GI50 Concentration That Inhibits Cell Growth by 50%, 72 h
Protocol: as §1

calf thymus DNA (ctDNA) [1] = assay: Direct ctDNA binding by inherent fluorescence (Benesi–Hildebrand); conditions: inherent fluorescence method, 10 µM CMC, buffer pH 7.0
Protocol: ctDNA experiments utilising the inherent fluorescence of the complexes were completed in addition to the FID experiments. […] The values of Ka and n for the compounds are listed in Table 4, where R^2 is the linear correlation coefficient for Ka.
The direct fluorescent measurements of DNA binding constants were also obtained with the same fluorimeter using 10 mm path length quartz cells. A 0.065 M stock solution of ctDNA was titrated into a 10 µM solution of CMCs 1–3 in a 40 mM K2HPO4/KH2PO, 10 mM KCl buffer at pH 7.0. The fluorescence was measured from 550 to 750 nm excited at 320 nm inverting 4 times and waiting 3 min between the addition of ctDNA and scan time to allow adequate time for the CMCs to interact with the DNA.

calf thymus DNA (ctDNA) [2] = assay: Fluorescent intercalator displacement (FID) assay, EtBr-saturated ctDNA; format: binding; parameters: Kq (bimolecular quenching constant) / KSV (Stern–Volmer quenching constant): unit not given here; conditions: buffer pH 7.0
Protocol: To investigate the potential mechanisms of action of complexes 1–3, fluorescent intercalator displacement (FID) experiments and DNA binding experiments utilizing the innate fluorescence were undertaken. For FID experiments, the concentration of a fluorescent intercalator, in this case ethidium bromide (EtBr), that is displaced by the complex under investigation is determined. In a solution of calf-thymus DNA (ctDNA) where is saturated with EtBr, the change in fluorescence is monitored as the complex is titrated into this solution. Once the decrease in fluorescence has stopped, the concentration of the complex allows us to calculate the stoichiometric point of binding, the change in fluorescence at the point of binding (ΔFsat), the binding coefficient (Ka), bimolecular quenching constant (Kq), Stern–Volmer quenching constant (Ksv), the binding constant for fluorescence (KF), and the molar equivalents of CMC (n) at the point of intersection is the experimental stoichiometry of binding. (1) [ctDNA]Tn−∆Fx/∆Fsat=[CMC] (2) ∆Fx/∆Fsat1/n=fraction of ctDNA−CMC complex (3) 1−∆Fx/∆Fsat1/n=fraction free CMC
The fluorescence at 601 nm for each titration was plotted, and the KF and n could be calculated from the intercept and slope, respectively. (4) F0/F=1+Kqτ0CMC=1+KSV[CMC] where F0 is the fluorescence of the binding site in the absence of quencher (CMC), F is the fluorescence of the site containing the CMC, and t0 is the lifetime of the chromophore in the absence of the quencher (Ɛ476 = 5680 for ethidium-bound DNA).
A plot of F0/F against [CMC] using experimental values allows for the determination of Kq and KSV from the slope. (5) log10F0−F/F=nlog10CMC+log10KF where n is the number of ethidium ligands that are displaced per CMC. […] A plot of log10[(F0 − F)/F)] against log10[CMC] is used to determine KF and n from the intercept and slope, respectively. Experiments were performed in triplicate for each CMC.
Fluorescent intercalator displacement (FID) assays were obtained using the same instrument and by using 10 mm quartz cells. Stock solutions CMCs 1–3 (30 µM) were titrated into a solution of […] ethidium bromide, 150 µM ctDNA in a 40 mM K2HPO4/KH2PO, and 10 mM KCl buffer at pH 7.0. The fluorescence was measured from 550 to 750 nm excited at 480 nm and inverting 4 times and waiting 3 min between the addition of ctDNA and scan time to allow adequate time for the CMCs to interact with the DNA.

ADDP Cis Res Ovarian = assay: MTT cytotoxicity ADDP; format: cell-based; conditions: read-out: GI50 Concentration That Inhibits Cell Growth by 50%, 72 h
Protocol: as §1

[3] = Lipophilicity by RP-HPLC (log Kw); format: physicochemical; conditions: isocratic 70 to 90% solvent B
Protocol: Lipophilicity was calculated using a RP-HPLC method to determine log Kw, whereby a stock solution was injected at different isocratic ratios ranging from 70 to 90% solvent B (organic) at a flow rate of 1 mL min^−1. These experiments were undertaken on an Agilent Technologies 1260 Infinity machine equipped with a Phenomenex Onyx™ Monolithic C18 reverse phase column (100 × 4.6 mm, 130 Å). The mobile phase comprised 0.06% TFA in water (solvent A) and 0.06% TFA in ACN:H2O (90:10, solvent B). The dead zero volume time was determined using potassium iodide as an external dead volume marker, further details are provided in the Supplementary Materials.

Compound	GI50 (A2780 Ovarian) [µM]	GI50 (H460 Lung) [µM]	GI50 (HT29 Colon) [µM]	GI50 (A431 Skin) [µM]	GI50 (SJ-G2 Glioblastoma) [µM]	GI50 (MCF-7 Breast) [µM]	GI50 (Du145 Prostate) [µM]	GI50 (U87 Glioblastoma) [µM]	GI50 (BE2-C Neuroblastoma) [µM]	GI50 (MIA Pancreas) [µM]	GI50 (MCF10A Breast (normal)) [µM]	Ka (binding constant) (calf thymus DNA (ctDNA) [1])	KSV (Stern–Volmer quenching constant) (calf thymus DNA (ctDNA) [2])	Ka (binding coefficient) (calf thymus DNA (ctDNA) [2])	Kf (binding constant for fluorescence) (calf thymus DNA (ctDNA) [2])	Kq (bimolecular quenching constant) (calf thymus DNA (ctDNA) [2])	Point of Experimental Stoichiometry of Binding (calf thymus DNA (ctDNA) [2])	n (number of ethidium ligands displaced per CMC) (calf thymus DNA (ctDNA) [2])	ΔFsat (change in fluorescence at the point of binding) (calf thymus DNA (ctDNA) [2])	GI50 (ADDP Cis Res Ovarian) [µM]	further results
N.N.[Cl][Pt][Cl] [Cisplatin, cisplatin, reference compound]	1 ± 0.1	0.9 ± 0.2	11.3 ± 1.9	2.4 ± 0.3	0.4 ± 0.1	6.5 ± 0.8	1.2 ± 0.1	3.8 ± 1.1	1.9 ± 0.2	7.5 ± 1.3											
Cc1c(C)c2cccnc2c2ncccc12.N[C@H]1CCCC[C@@H]1N.[Pt] [Complex 56MESS, reference compound]	0.03 ± 0.004	0.037 ± 0.009		0.051 ± 0.021	0.074 ± 0.018	0.05 ± 0.02	0.007 ± 0.002	0.076 ± 0.014	0.1 ± 0.016	0.015 ± 0.002	0.032 ± 0.007										SI = GI50 for normal cells/GI50 for cancer cells (MCF10A/MCF-7) (MCF-7 Breast): 0.64
[Pt(Bequ)( SSDACH)]+ [Complex 2a]	18 ± 2.3	11 ± 1.5	16 ± 1.3	12 ± 2.4	13 ± 2.2	5.4 ± 1	26 ± 2	8.6 ± 1.1	23 ± 3.5	20 ± 3	20 ± 1	1.11 × 10^4	1.339	1.58 × 10^4	3.25	0.241	2.52	0.592	89.29	14 ± 0.3	Lipophilicity × 10^−2 (log Kw) [3]: 2.06 ± 0.097 × 10^−2
[Pt(Bequ)(RRDACH)]+ [Complex 2b]	5 ± 0.3	8.1 ± 1	30 ± 2.3	3.4 ± 0.3	10 ± 2.2	7.7 ± 2	20 ± 2.7	4.3 ± 0.3	48 ± 1.7	8.1 ± 1.6	10.3 ± 1.9	1.39 × 10^4	1.662	1.59 × 10^4	3.78	0.271	2.47	0.668	89.01	19 ± 3	SI = GI50 for normal cells/GI50 for cancer cells (MCF10A/MCF-7) (MCF-7 Breast): 1.33; Lipophilicity × 10^−2 (log Kw) [3]: 3.97 ± 0.053 × 10^−2
[Pt(DiBequ)(RRDACH)]+ [Complex 3b]	4.5 ± 0.3	8.2 ± 2.9	16 ± 0.3	3.9 ± 0.4	10.1 ± 2.6	4.2 ± 0.3	16 ± 1.5	4.1 ± 0.3	33 ± 1.2	12.5 ± 2	8.5 ± 1.4	3.68 × 10^4	1.727	3.98 × 10^4	4.22	0.297	2.62	0.757	82.38	6.9 ± 0.4	Lipophilicity × 10^−2 (log Kw) [3]: 0.4 ± 0.029 × 10^−2
[Pt(DiBequ)(SSDACH)]+ [Complex 3a]	12 ± 0.9	16 ± 0.9	16	14 ± 0.6	17 ± 0.6	15 ± 0.5	23 ± 2.1	16 ± 0.6	9 ± 1.3	15 ± 0.7	16 ± 0.6	1.11 × 10^4	1.342	1.07 × 10^4	3.18	0.237	2.38	0.579	91.83	15	SI = GI50 for normal cells/GI50 for cancer cells (MCF10A/MCF-7) (MCF-7 Breast): 1.07; Lipophilicity × 10^−2 (log Kw) [3]: 0.77 ± 0.032 × 10^−2
[Pt(Pepy)(RRDACH)]+ [Complex 1b]	31 ± 2.9	25 ± 2.9	41 ± 2.7	29 ± 2.6	20 ± 4.8	13 ± 1.7	41 ± 0.9	23 ± 2.2	38 ± 4.6	41 ± 2	32 ± 2.7	1.46 × 10^4	1.957	1.58 × 10^4	4.23	0.328	2.65	0.757	86.38	26 ± 0.6	Lipophilicity × 10^−2 (log Kw) [3]: 1.52 ± 0.063 × 10^−2
[Pt(Pepy)(SSDACH)]+ [Complex 1a]	12 ± 0.7	5.8 ± 0.4	13 ± 1	4.2 ± 0.5	11 ± 0.7	8.4 ± 2	9 ± 2	5.3 ± 0.3	34 ± 7.5	8 ± 1.6	6.4 ± 0.5	2.20 × 10^4	1.988	2.75 × 10^4	4.35	0.329	2.84	0.778	83.82	5.1 ± 0.3	SI = GI50 for normal cells/GI50 for cancer cells (MCF10A/MCF-7) (MCF-7 Breast): 0.76
